Values of other authors, collected in patent US8263663B2, “Azide functionalized peptide targeting groups” (Intezyne Technologies, Inc., priority 2005, dated 2012).

Details: at similar concentrations (to 225 μg/mL)

In the case of `COc1cccc2c1C(=O)c1c(O)c3c(c(O)c1C2=O)C[C@@](O)(C(=O)CO)C[C@@H]3O[C@H]1C[C@H](N)[C@H](O)[C@H](C)O1` [DOX, doxorubicin], the hemolysis is listed as greater than 10%.
